Values after ≈ are worked out from the molar mass of the structure shown. Starred links: 1 amine or outer side, 2 acyl side, 3 side chain; linkers in the order of their positions; H or OH if unused. Non-standard residues stand in square brackets, D forms with d. Residues, ends and D or L forms follow the SMILES beside them. X2 = C=CCCCC(CCCC=C)(N[*:1])C(=O)[*:2]; Bta = N[C@@H](Cc1csc2ccccc12)C(=O)O; αAllylPro = C=CC[C@@]1(C(=O)O)CCCN1; S8 = C=CCCCCCC[C@](C)(N)C(=O)O
How the values were obtained:
CHI Log D procedure = type: physicochemical; details: for CHI Log D: pH 7.4
Solubility in PBS = type: physicochemical
How it was run: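 PBS sample ultracentrifuged; supernatant run on HPLC vs. 50 μM peptide in DMSO standard. Solubility = (PBS peak area / DMSO peak area) × 50 uM.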

## CC(=O)N1CCC[C@]12CC=CCCCC1(CCCC=CCCCCCC[C@@](C)(C(=O)N[C@@H](Cc3ccccc3)C(=O)N[C@@H](Cc3csc4ccccc34)C(=O)N[C@@H](CCC(N)=O)C(N)=O)NC(=O)[C@H](CCC(N)=O)NC(=O)[C@H](Cc3ccccc3)NC(=O)[C@H](C)NC(=O)[C@H](C)NC(=O)[C@H](CCC(=O)O)NC(=O)[C@H](CC(=O)O)NC1=O)NC(=O)[C@H](C)NC(=O)[C@H](Cc1nn[nH]n1)NC2=O (stereo partly drawn) [I-416, Ac-PL3-tetz-Ala-B5-Asp-Glu-Ala-Ala-Phe-Gln-S8-Phe-BztA-Gln-NH2]
CHI Log D procedure
  CHI Log D: 2.058
Solubility in PBS
  Solubility: 44 µM (≈ 82.1 µg/mL)

## CC(=O)N1CCC[C@]12CC=CCCCC1(CCCC=CCCCCCC[C@@](C)(C(=O)N[C@@H](Cc3ccccc3)C(=O)N[C@@H](Cc3csc4ccccc34)C(=O)N[C@@H](CCC(N)=O)C(N)=O)NC(=O)[C@H](CCC(N)=O)NC(=O)[C@H](Cc3ccccc3)NC(=O)[C@H](C)NC(=O)[C@H](C)NC(=O)[C@H](CCC(=O)O)NC(=O)[C@H](CC(=O)O)NC1=O)NC(=O)[C@H](C)NC(=O)[C@H](Cc1nn[nH]n1)NC2=O (stereo partly drawn) [I-417, Ac-PL3-tetz-Ala-B5-Asp-Glu-Ala-Ala-Phe-Gln-S8-Phe-BztA-Gln-NH2]
CHI Log D procedure
  CHI Log D: 2.085
Solubility in PBS
  Solubility: 30 µM (≈ 56 µg/mL)

## CC(=O)N1CCC[C@]12CC=CCCCC1(CCCC=CCCCCCC[C@@](C)(C(=O)N[C@@H](Cc3cn(C)cn3)C(=O)N[C@@H](Cc3csc4ccccc34)C(=O)N[C@@H](CCC(N)=O)C(N)=O)NC(=O)[C@H](CC(N)=O)NC(=O)[C@H](Cc3ccccc3)NC(=O)[C@H](C)NC(=O)[C@H](C)NC(=O)[C@H](CCC(=O)O)NC(=O)[C@H](CC(=O)O)NC1=O)NC(=O)[C@H](C)NC(=O)[C@H](CC(=O)O)NC2=O (stereo partly drawn) [I-439, Ac-PL3-Asp-Ala-B5-Asp-Glu-Ala-Ala-Phe-Asn-S8-1meH-BztA-Gln-NH2]
CHI Log D procedure
  CHI Log D: 1.408
Solubility in PBS
  Solubility: 50 µM (≈ 91.6 µg/mL)

## CC(=O)N1CCC[C@]12CC=CCCCC1(CCCC=CCCCCCC[C@@](C)(C(=O)N[C@@H](Cc3cn(C)cn3)C(=O)N[C@@H](Cc3csc4ccccc34)C(=O)N[C@@H](CCC(N)=O)C(N)=O)NC(=O)[C@H](CC(N)=O)NC(=O)[C@H](Cc3ccccc3)NC(=O)[C@H](C)NC(=O)[C@H](C)NC(=O)[C@H](CCC(=O)O)NC(=O)[C@H](CC(=O)O)NC1=O)NC(=O)[C@H](C)NC(=O)[C@H](CC(=O)O)NC2=O (stereo partly drawn) [I-440, Ac-PL3-Asp-Ala-B5-Asp-Glu-Ala-Ala-Phe-Asn-S8-1meH-BztA-Gln-NH2]
CHI Log D procedure
  CHI Log D: 1.613
Solubility in PBS
  Solubility: 50 µM (≈ 91.6 µg/mL)

## CC(=O)N1CCC[C@]12CC=CCCCC1(CCCC=CCCCCCC[C@@](C)(C(=O)N[C@@H](Cc3cccc(F)c3)C(=O)N[C@@H](Cc3c[nH]c4ccccc34)C(=O)N[C@@H](CCC(N)=O)C(N)=O)NC(=O)[C@H](CCC(N)=O)NC(=O)[C@H](Cc3ccsc3)NC(=O)[C@H](C)NC(=O)[C@H](C)NC(=O)[C@H](CCC(=O)O)NC(=O)[C@H](CC(=O)O)NC1=O)NC(=O)[C@H](C)NC(=O)[C@H](CC(=O)O)NC2=O (stereo partly drawn) [I-451, Ac-PL3-Asp-Ala-B5-Asp-Glu-Ala-Ala-3Thi-Gln-S8-3FF-Trp-Gln-NH2]
CHI Log D procedure
  CHI Log D: 1.88
Solubility in PBS
  Solubility: 50 µM (≈ 92.4 µg/mL)

## C=CC(=O)NC[C@H](NC(=O)[C@]1(C)CCCCCCC=CCCCC2(CCCC=CC[C@]3(CCCN3C(C)=O)C(=O)N[C@@H](CC(=O)O)C(=O)N[C@@H]([C@@H](C)CC)C(=O)N2)C(=O)N[C@@H](CC(=O)O)C(=O)N[C@@H](CC(=O)O)C(=O)N[C@@H](C)C(=O)N[C@@H](C)C(=O)N[C@@H](Cc2ccccc2)C(=O)N[C@@H](CCC(N)=O)C(=O)N1)C(=O)N[C@@H](Cc1csc2ccccc12)C(=O)N[C@@H](CCC(N)=O)C(N)=O (stereo partly drawn) [I-483, Ac-PL3-Asp-Ile-B5-Asp-Asp-Ala-Ala-Phe-Gln-S8-[Acryl]Dap-BztA-Gln-NH2]
CHI Log D procedure
  CHI Log D: 1.845
Solubility in PBS
  Solubility: 43 µM (≈ 80.1 µg/mL)

## C=CC(=O)NC[C@H](NC(=O)[C@]1(C)CCCCCCC=CCCCC2(CCCC=CC[C@]3(CCCN3C(C)=O)C(=O)N[C@@H](CC(=O)O)C(=O)N[C@@H]([C@@H](C)CC)C(=O)N2)C(=O)N[C@@H](CC(=O)O)C(=O)N[C@@H](CC(=O)O)C(=O)N[C@@H](C)C(=O)N[C@@H](C)C(=O)N[C@@H](Cc2ccccc2)C(=O)N[C@@H](CCC(N)=O)C(=O)N1)C(=O)N[C@@H](Cc1csc2ccccc12)C(=O)N[C@@H](CCC(N)=O)C(N)=O (stereo partly drawn) [I-484, Ac-PL3-Asp-Ile-B5-Asp-Asp-Ala-Ala-Phe-Gln-S8-[Acryl]Dap-BztA-Gln-NH2]
CHI Log D procedure
  CHI Log D: 1.863
Solubility in PBS
  Solubility: 45 µM (≈ 83.8 µg/mL)

## CC(=O)N1CCC[C@]12CC=CCCCC1(CCCC=CCCCCCC[C@@](C)(C(=O)N[C@@H](Cc3ccccc3)C(=O)N[C@@H](Cc3csc4ccccc34)C(=O)N[C@@H](CCC(N)=O)C(N)=O)NC(=O)[C@H](CCC(N)=O)NC(=O)[C@H](Cc3ccccc3)NC(=O)[C@H](C)NC(=O)[C@H](C)NC(=O)[C@H](CCC(=O)O)NC(=O)[C@H](CCO)NC1=O)NC(=O)[C@H](C)NC(=O)[C@H](CC(=O)O)NC2=O (stereo partly drawn) [I-496, Ac-PL3-Asp-Ala-B5-Hse-Glu-Ala-Ala-Phe-Gln-S8-Phe-BztA-Gln-NH2]
CHI Log D procedure
  CHI Log D: 2.456
Solubility in PBS
  Solubility: 41 µM (≈ 74.9 µg/mL)

## CC(=O)N1CCC[C@]12CC=CCCCC1(CCCC=CCCCCCC[C@@](C)(C(=O)N[C@@H](Cc3ccccc3)C(=O)N[C@@H](Cc3csc4ccccc34)C(=O)N[C@@H](CCC(N)=O)C(N)=O)NC(=O)[C@H](CCC(N)=O)NC(=O)[C@H](Cc3ccccc3)NC(=O)[C@H](C)NC(=O)[C@H](C)NC(=O)[C@H](CCC(=O)O)NC(=O)[C@H](CCO)NC1=O)NC(=O)[C@H](C)NC(=O)[C@H](CC(=O)O)NC2=O (stereo partly drawn) [I-497, Ac-PL3-Asp-Ala-B5-Hse-Glu-Ala-Ala-Phe-Gln-S8-Phe-BztA-Gln-NH2]
CHI Log D procedure
  CHI Log D: 2.6
Solubility in PBS
  Solubility: 29 µM (≈ 53 µg/mL)

## CC(=O)N1CCC[C@]12CC=CCCCC1(CCCC=CCCCCCC[C@@](C)(C(=O)N[C@@H](Cc3ccccc3)C(=O)N[C@@H](Cc3csc4ccccc34)C(=O)N[C@@H](CCC(N)=O)C(N)=O)NC(=O)[C@H](CCC(N)=O)NC(=O)[C@H](Cc3ccccc3)NC(=O)[C@H](C)NC(=O)[C@H](C)NC(=O)[C@H](CCC(=O)O)NC(=O)[C@H](CCO)NC1=O)NC(=O)[C@H](C)NC(=O)[C@H](CC(=O)O)NC2=O (stereo partly drawn) [I-498, Ac-PL3-Asp-Ala-B5-Hse-Glu-Ala-Ala-Phe-Gln-S8-Phe-BztA-Gln-NH2]
CHI Log D procedure
  CHI Log D: 2.637
Solubility in PBS
  Solubility: 42 µM (≈ 76.7 µg/mL)

## CC(=O)N1CCC[C@]12CC=CCCCC1(CCCC=CCCCCCC[C@@](C)(C(=O)N[C@@H](Cc3ccccc3)C(=O)N[C@@H](Cc3csc4ccccc34)C(=O)N[C@@H](CCC(N)=O)C(N)=O)NC(=O)[C@H](CC(N)=O)NC(=O)[C@H](Cc3ccccc3)NC(=O)[C@H](C)NC(=O)[C@H](C)NC(=O)[C@H](CCC(=O)O)NC(=O)[C@H](CNS(C)(=O)=O)NC1=O)NC(=O)[C@H](C)NC(=O)[C@H](CC(=O)O)NC2=O (stereo partly drawn) [I-529, Ac-PL3-Asp-Ala-B5-[MeSO2]Dap-Glu-Ala-Ala-Phe-Asn-S8-Phe-BztA-Gln-NH2]
CHI Log D procedure
  CHI Log D: 2.854
Solubility in PBS
  Solubility: 50 µM (≈ 93.8 µg/mL)

## CC(=O)N1CCC[C@]12CC=CCCCC1(CCCC=CCCCCCC[C@@](C)(C(=O)N[C@@H](Cc3ccccc3)C(=O)N[C@@H](Cc3csc4ccccc34)C(=O)N[C@@H](CCC(N)=O)C(N)=O)NC(=O)[C@H](CC(N)=O)NC(=O)[C@H](Cc3ccccc3)NC(=O)[C@H](C)NC(=O)[C@H](C)NC(=O)[C@H](CCC(=O)O)NC(=O)[C@H](CNS(C)(=O)=O)NC1=O)NC(=O)[C@H](C)NC(=O)[C@H](CC(=O)O)NC2=O (stereo partly drawn) [I-530, Ac-PL3-Asp-Ala-B5-[MeSO2]Dap-Glu-Ala-Ala-Phe-Asn-S8-Phe-BztA-Gln-NH2]
CHI Log D procedure
  CHI Log D: 2.935
Solubility in PBS
  Solubility: 50 µM (≈ 93.8 µg/mL)

## CC(=O)N1CCC[C@]12CC=CCCCC1(CCCC=CCCCCCC[C@@](C)(C(=O)N[C@@H](Cc3ccccc3)C(=O)N[C@@H](Cc3csc4ccccc34)C(=O)N[C@@H](CCC(N)=O)C(N)=O)NC(=O)[C@H](CC(N)=O)NC(=O)[C@H](Cc3ccccc3)NC(=O)[C@H](C)NC(=O)[C@H](C)NC(=O)[C@H](CCC(=O)O)NC(=O)[C@H](CCNS(C)(=O)=O)NC1=O)NC(=O)[C@H](C)NC(=O)[C@H](CC(=O)O)NC2=O (stereo partly drawn) [I-531, Ac-PL3-Asp-Ala-B5-[MeSO2]Dab-Glu-Ala-Ala-Phe-Asn-S8-Phe-BztA-Gln-NH2]
CHI Log D procedure
  CHI Log D: 2.794
Solubility in PBS
  Solubility: 43 µM (≈ 81.3 µg/mL)

## CC(=O)N1CCC[C@]12CC=CCCCC1(CCCC=CCCCCCC[C@@](C)(C(=O)N[C@@H](Cc3ccccc3)C(=O)N[C@@H](Cc3csc4ccccc34)C(=O)N[C@@H](CCC(N)=O)C(N)=O)NC(=O)[C@H](CC(N)=O)NC(=O)[C@H](Cc3ccccc3)NC(=O)[C@H](C)NC(=O)[C@H](C)NC(=O)[C@H](CCC(=O)O)NC(=O)[C@H](CCNS(C)(=O)=O)NC1=O)NC(=O)[C@H](C)NC(=O)[C@H](CC(=O)O)NC2=O (stereo partly drawn) [I-532, Ac-PL3-Asp-Ala-B5-[MeSO2]Dab-Glu-Ala-Ala-Phe-Asn-S8-Phe-BztA-Gln-NH2]
CHI Log D procedure
  CHI Log D: 2.858
Solubility in PBS
  Solubility: 42 µM (≈ 79.4 µg/mL)

## C=CCCCCCC[C@](C)(NC(=O)[C@H](CCC(N)=O)NC(=O)[C@H](Cc1ccccc1)NC(=O)[C@H](C)NC(=O)[C@H](C)NC(=O)[C@H](CC(=O)O)NC(=O)[C@H](CC(=O)O)NC(=O)C(CCCC=C)(CCCC=C)NC(=O)[C@H](C)NC(=O)[C@H](CC(=O)O)NC(=O)[C@]1(CC=C)CCCN1C(C)=O)C(=O)N[C@@H](Cc1ccccc1)C(=O)N[C@@H](Cc1csc2ccccc12)C(=O)N[C@@H](CCC(N)=O)C(N)=O [I-578, Ac-PL3-Asp-Ala-B5-Asp-Asp-Ala-Ala-Phe-Gln-S8-Phe-BztA-Gln-NH2] (Ac-[αAllylPro]DA[X2]DDAAFQ[S8]F[Bta]Q-NH2)
CHI Log D procedure; pH 7.4, CHI Log D
  chromatographic logD: 2.26
Solubility in PBS
  Solubility: 50 µM (≈ 94.2 µg/mL)

— patent US20240116985A1, “STAPLED PEPTIDES AND METHODS THEREOF” (priority 2020, published 2024)
